Reference: PMC9714921 (PLOS Pathogens, 2022)
Where “and” joins values, the source holds several entries; their conditions need not be identical. Identical values can stand only once.

Columns and labels:
[1] = tested on: T. suis N-AChR; details: read-out: EC50 μM ACh; accessory protein Ric-3; ref [34]; cited from earlier work
[2] = tested on: Gpu-ACR-16; assay: Voltage-clamp electrophysiology, N-AChR reconstituted in Xenopus laevis oocytes; assay type: cell-based, Gonglyonema pulchrum
Protocol: (§1) cRNA for oocyte injection was prepared with the mMESSAGE mMACHINE T7 kit following manufacturers protocol (Ambion, USA). Concentration was determined using a Nanodrop spectrophotometer. Desired subunit combinations with associated accessory proteins were mixed and diluted with nuclease-free water to a final concentration of 250 ng/uL for each construct.
(§2) Adult female X. laevis oocyte extraction was performed in accordance with the McGill University Animal Use Protocol 2015–7758 following standard protocol. Briefly, frog ovary lobes were placed in a Ca^2+-free OR2 solution (82 mM NaCl, 2 mM KCl, 1 mM MgCl2, 5 mM HEPES buffer, pH 7.3) and manually divided into clusters of <10 oocytes with thin tweezers followed by a 90-minute incubation in 10 mg/mL collagenase type II (Sigma-Aldrich, USA). Oocytes were washed in Ca^2+-free OR2 and placed ND96 solution (NaCl 96 mM, KCl 2 mM, CaCl2 1.8 mM, MgCl2 1 mM and HEPES 5 mM, pH 7.3) supplemented with sodium pyruvate 2.5 mM [86] and incubated at 18°C until cRNA injection. Oocytes were injected with 50 nL (12.5 ng of each injected gene) of the desired cRNA subunit and accessory protein combination mix with the NanojectII (Drummond Scientific, USA). Following injection, oocytes were incubated in ND96 buffer at 18°C until electrophysiology. All electrophysiology was conducted two days post-injection, except for the expression analysis assay in which oocytes were measured every day after injection for three consecutive days.
(§3) All drugs were dissolved in recording solution (NaCl 100 mM, KCl 2.5 mM, CaCl2 1 mM, HEPES 5 mM, pH 7.3) to a stock concentration of 10 mM and diluted to their final recording concentrations. Oxantel and bephenium were first dissolved in DMSO to ensure a final recording concentration contained less than 0.1% DMSO. For agonist profiling, all drugs were diluted to a concentration of 100 μM.
(§4) Oocytes were placed individually in an RC3Z chamber (Harvard Apparatus, USA) submerged in recording solution (NaCl 100 mM, KCl 2.5 mM, CaCl2 1 mM, HEPES 5 mM, pH 7.3). The RC3Z chamber was connected to a perfusion system containing recording solution and ligand solutions. Pulled glass capillaries (World Precision Instruments, USA) were filled with 3M KCl and the tips clipped and checked for appropriate resistance (between 0.5 and 5 MΩ). A 3M KCl agar bridge grounded the oocyte bath chamber. Measurements were made using an Axon Axoclamp 900A amplifier with Digidata1550M. […] Ligand solutions were applied to the oocytes with an approximate flow rate of 1.2 m/s and current responses measured. Oocytes were exposed to the ligand solution until a distinct current peak was observed followed by a wash with the recording solution until current returned to baseline for a minimum of 10 seconds until the next ligand exposure. For BAPTA-AM exposed oocytes, oocytes were incubated in 100 μM BAPTA-AM for four hours prior to electrophysiology recording. Data was analyzed using Clampex 9.2 (Axon Instruments, USA) and statistical analysis and graphs produced in Prism (GraphPad version 9.1). T-tests were used to compare responses with error bars representing standard error. For concentration-response curves, individual oocyte current response to the different ligand concentrations were normalized to the response obtained with 300 μM. Data was fit using the Graphpad “log(agonist) vs normalized response–variable slope” equation, with 95% confidence intervals being reported. […] For examples of oocyte responses, recordings were filtered in Clampfit using the lowband pass at 40 Hz cutoff.

[3] = biological target: Asu-ACR-16 (Ascaris suum, UniProt F1KYJ9); assay: cell-based; assay type: cell-based
Protocol: as §1, §2, §3, §4

[4] = biological target: Tzc-ACR-16 (Thelazia callipaeda, UniProt A0A158RD20); assay: cell-based; assay type: cell-based
Protocol: as §1, §2, §3, §4

[5] = biological target: Dme-ACR-16 (Dracunculus medinensis, UniProt A0A0N4U0T6); assay: cell-based; assay type: cell-based
Protocol: as §1, §2, §3, §4

[6] = tested on: T. muris N-AChR; details: read-out: EC50 μM ACh; accessory protein Ric-3; ref [35]; cited from earlier work
[7] = No accessory protein, listed as acetylcholine
[8] = co-injected: Bma-ric-3 (reference condition)
[9] = co-injected: Bma-ric-3 (reference condition), listed as acetylcholine
[10] = co-injected: Bma-ric-3 + Bma-eat-18
[11] = co-injected: Bma-ric-3 + Bma-molo-1
[12] = co-injected: Bma-ric-3 + Bma-unc-50 + Bma-unc-74
[13] = co-injected: Bma-ric-3 + Bma-unc-50 + Bma-unc-74 + Bma-eat-18
[14] = co-injected: Bma-ric-3 + Cel-emc-6
[15] = co-injected: Bma-ric-3 + Cel-nra-2 + Cel-nra-4
[16] = co-injected: Bma-ric-3 + Cel-nra-2 + Cel-nra-4, listed as acetylcholine
[17] = co-injected: Hco-ric-3, listed as acetylcholine

Chain of Asu-ACR-16 (F1KYJ9 entry or part of it): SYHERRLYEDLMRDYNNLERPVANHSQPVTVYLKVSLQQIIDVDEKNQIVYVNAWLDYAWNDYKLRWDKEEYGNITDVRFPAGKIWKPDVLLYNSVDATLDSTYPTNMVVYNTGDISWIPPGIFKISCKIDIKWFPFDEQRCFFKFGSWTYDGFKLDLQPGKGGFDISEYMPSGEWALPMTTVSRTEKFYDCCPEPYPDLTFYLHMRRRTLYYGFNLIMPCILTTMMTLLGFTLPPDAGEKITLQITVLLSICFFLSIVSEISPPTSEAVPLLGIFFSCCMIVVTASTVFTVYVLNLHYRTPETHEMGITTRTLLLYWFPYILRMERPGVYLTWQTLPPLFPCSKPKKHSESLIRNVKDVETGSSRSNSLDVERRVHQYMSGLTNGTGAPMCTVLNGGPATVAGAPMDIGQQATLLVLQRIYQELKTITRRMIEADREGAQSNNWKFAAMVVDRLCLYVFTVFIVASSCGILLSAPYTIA
Chain of Tzc-ACR-16 (A0A158RD20 entry or part of it): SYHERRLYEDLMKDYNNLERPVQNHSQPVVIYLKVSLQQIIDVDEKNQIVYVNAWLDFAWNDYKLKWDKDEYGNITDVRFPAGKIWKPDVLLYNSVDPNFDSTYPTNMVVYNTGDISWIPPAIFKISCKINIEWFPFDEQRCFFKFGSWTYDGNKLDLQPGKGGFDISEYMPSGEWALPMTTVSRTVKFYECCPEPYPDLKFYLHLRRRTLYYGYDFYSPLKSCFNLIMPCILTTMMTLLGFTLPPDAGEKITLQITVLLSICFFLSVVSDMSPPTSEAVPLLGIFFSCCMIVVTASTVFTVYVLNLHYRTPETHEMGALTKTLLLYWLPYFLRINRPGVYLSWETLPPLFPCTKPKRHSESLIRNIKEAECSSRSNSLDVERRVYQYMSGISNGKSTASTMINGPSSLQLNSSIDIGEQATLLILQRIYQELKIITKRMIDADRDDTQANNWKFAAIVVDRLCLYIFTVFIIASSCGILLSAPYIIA
Chain of Dme-ACR-16 (A0A0N4U0T6 entry or part of it): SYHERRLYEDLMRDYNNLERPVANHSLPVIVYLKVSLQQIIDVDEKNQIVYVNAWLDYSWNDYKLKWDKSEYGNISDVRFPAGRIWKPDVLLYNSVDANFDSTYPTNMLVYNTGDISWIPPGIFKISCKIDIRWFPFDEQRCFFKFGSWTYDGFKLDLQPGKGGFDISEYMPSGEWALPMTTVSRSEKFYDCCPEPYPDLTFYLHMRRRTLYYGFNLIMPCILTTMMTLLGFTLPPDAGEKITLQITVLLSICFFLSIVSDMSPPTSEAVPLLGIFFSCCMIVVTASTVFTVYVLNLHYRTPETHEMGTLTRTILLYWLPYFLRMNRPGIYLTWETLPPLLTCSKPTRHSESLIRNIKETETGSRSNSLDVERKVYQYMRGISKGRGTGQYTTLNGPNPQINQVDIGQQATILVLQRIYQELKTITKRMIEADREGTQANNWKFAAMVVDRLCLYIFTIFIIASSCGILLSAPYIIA

Q: Which EC50 [1] does the source give for `CC(=O)OCC[N+](C)(C)C` [ACh, acetylcholine] here?
A: The EC50 was 14.5 ± 1.03 µM.

Q: What about the “response to 100 μM acetylcholine normalized to Day 3 response” value ([2]; Day 1 post-injection) of the same molecule?
A: The value was 19 ± 6%.

Q: What about the “response to 100 μM acetylcholine normalized to Day 3 response” value ([2]; Day 2 post-injection) of the same molecule?
A: Its value is 76 ± 6%.

Q: And the “current response to 100 μM acetylcholine” value ([2]; No accessory protein)?
A: The value was 0 ± 0 nA.

Q: And the “current response to 100 μM acetylcholine” value [2, 7]?
A: Its value is 0 ± 0 (n=14) nA.

Q: What about the “current response to 100 μM acetylcholine” value [2, 8] of the same molecule?
A: Its value is 1281 ± 197 nA.

Q: And the “current response to 100 μM acetylcholine” value [2, 9]?
A: Its value is 1281 ± 197 (n=8) nA.

Q: And the “current response to 100 μM acetylcholine” value [2, 10]?
A: The value was 1264 ± 177 (n=10) ns nA.

Q: And the “current response to 100 μM acetylcholine” value [2, 11]?
A: The value was 1049 ± 77 (n=16) ns nA.

Q: And the “current response to 100 μM acetylcholine” value [2, 12]?
A: The value was 847 ± 124 (n=14) ns nA.

Q: And the “current response to 100 μM acetylcholine” value [2, 13]?
A: The value was 1854 ± 83 nA.

Q: And the “current response to 100 μM acetylcholine” value ([2]; co-injected: Bma-ric-3 + Bma-unc-50 + Bma-unc-74 + Bma-eat-18, listed as acetylcholine)?
A: Its value is 1854 ± 83 (n=14) nA.

Q: What about the “current response to 100 μM acetylcholine” value [2, 14] of the same molecule?
A: Its value is 1628 ± 123 (n=17) ns nA.

Q: And the “current response to 100 μM acetylcholine” value [2, 15]?
A: The value was 2553 ± 123 nA.

Q: What about the “current response to 100 μM acetylcholine” value [2, 16] of the same molecule?
A: Its value is 2553 ±123 (n=12) nA.

Q: And the “current response to 100 μM acetylcholine” value ([2]; co-injected: Hco-ric-3)?
A: The value was ~ 1400 nA.

Q: And the “current response to 100 μM acetylcholine” value [2, 17]?
A: The value was 1403 ± 91 nA and 1403 ± 91 (n=14) ns nA.

Q: And the EC50 ([2]; read-out: EC50 ACh, concentration-response 0.3-300 μM, normalized to 300 μM, with 95% CI)?
A: The EC50 was 10.5 µM.

Q: And the “response to 100 μM acetylcholine normalized to Day 3 response” value ([3]; Day 1 post-injection)?
A: Its value is 44 ± 5%.

Q: And the “response to 100 μM acetylcholine normalized to Day 3 response” value ([3]; Day 2 post-injection)?
A: Its value is 88 ± 5%.

Q: What about the “current response to 100 μM acetylcholine” value ([3]; No accessory protein) of the same molecule?
A: Its value is 24 ± 10 nA.

Q: And the “current response to 100 μM acetylcholine” value [3, 7]?
A: The value was 24 ± 10 (n=11) nA.

Q: What about the “current response to 100 μM acetylcholine” value [3, 8] of the same molecule?
A: The value was 2023 ± 68 nA.

Q: And the “current response to 100 μM acetylcholine” value [3, 9]?
A: Its value is 2023 ± 68 (n=11) nA.

Q: And the “current response to 100 μM acetylcholine” value [3, 10]?
A: The value was 3152 ± 102 (n=13) nA.

Q: What about the “current response to 100 μM acetylcholine” value [3, 11] of the same molecule?
A: The value was 1425 ± 55 (n=15) nA.

Q: What about the “current response to 100 μM acetylcholine” value [3, 12] of the same molecule?
A: The value was 2606 ± 183 (n=10) nA.

Q: And the “current response to 100 μM acetylcholine” value [3, 13]?
A: The value was 2166 ± 87 (n=12) ns nA.

Q: And the “current response to 100 μM acetylcholine” value [3, 14]?
A: Its value is 2582 ± 89 (n=12) nA.

Q: What about the “current response to 100 μM acetylcholine” value [3, 15] of the same molecule?
A: The value was 2849 ± 152 (n=14) nA.

Q: And the “current response to 100 μM acetylcholine” value ([3]; co-injected: Hco-ric-3)?
A: Its value is 2000–2200 nA and 2052 ± 70 nA.

Q: What about the “current response to 100 μM acetylcholine” value [3, 17] of the same molecule?
A: Its value is 2052 ± 66 nA and 2052 ± 66 (n=13) ns nA.

Q: What about the EC50 [4] of the same molecule?
A: Its EC50 is 17.4 µM.

Q: And the “response to 100 μM acetylcholine normalized to Day 3 response” value ([4]; Day 1 post-injection)?
A: The value was 7 ± 1%.

Q: What about the “response to 100 μM acetylcholine normalized to Day 3 response” value ([4]; Day 2 post-injection) of the same molecule?
A: Its value is 47 ± 12%.

Q: And the “current response to 100 μM acetylcholine” value ([4]; No accessory protein)?
A: Its value is 0 ± 0 nA.

Q: And the “current response to 100 μM acetylcholine” value [4, 7]?
A: The value was 0 ± 0 (n=15) nA.

Q: And the “current response to 100 μM acetylcholine” value [4, 8]?
A: The value was 818 ± 112 nA.

Q: And the “current response to 100 μM acetylcholine” value [4, 9]?
A: The value was 818 ± 112 (n=13) nA.

Q: What about the “current response to 100 μM acetylcholine” value [4, 10] of the same molecule?
A: Its value is 791 ± 119 (n=8) ns nA.

Q: What about the “current response to 100 μM acetylcholine” value [4, 11] of the same molecule?
A: Its value is 660 ± 76 (n=15) ns nA.

Q: What about the “current response to 100 μM acetylcholine” value [4, 12] of the same molecule?
A: Its value is 367 ± 43 nA.

Q: What about the “current response to 100 μM acetylcholine” value [4, 13] of the same molecule?
A: Its value is 964 ± 101 (n=15) ns nA.

Q: What about the “current response to 100 μM acetylcholine” value ([4]; co-injected: Bma-ric-3 + Bma-unc-50 + Bma-unc-74, listed as acetylcholine) of the same molecule?
A: The value was 367 ± 43 (n=15) nA.

Q: And the “current response to 100 μM acetylcholine” value [4, 14]?
A: Its value is 720 ± 70 (n=13) ns nA.

Q: And the “current response to 100 μM acetylcholine” value [4, 15]?
A: Its value is 1263 ± 88 nA.

Q: What about the “current response to 100 μM acetylcholine” value [4, 16] of the same molecule?
A: The value was 1263 ± 88 (n=15) nA.

Q: What about the “current response to 100 μM acetylcholine” value ([4]; co-injected: Hco-ric-3) of the same molecule?
A: Its value is 400–600 nA.

Q: What about the “current response to 100 μM acetylcholine” value [4, 17] of the same molecule?
A: Its value is 563 ± 39 nA and 563 ± 39 (n=13) nA.

Q: And the EC50 [5]?
A: Its EC50 is 12.8 µM.

Q: What about the “response to 100 μM acetylcholine normalized to Day 3 response” value ([5]; Day 1 post-injection) of the same molecule?
A: The value was 49 ± 7%.

Q: What about the “response to 100 μM acetylcholine normalized to Day 3 response” value ([5]; Day 2 post-injection) of the same molecule?
A: The value was 102 ± 7%.

Q: And the “current response to 100 μM acetylcholine” value ([5]; No accessory protein)?
A: The value was 1290 ± 70 nA.

Q: What about the “current response to 100 μM acetylcholine” value [5, 7] of the same molecule?
A: Its value is 1290 ± 70 (n=17) nA.

Q: What about the “current response to 100 μM acetylcholine” value [5, 10] of the same molecule?
A: Its value is 2649 ± 112 (n=11) ns nA.

Q: What about the “current response to 100 μM acetylcholine” value [5, 11] of the same molecule?
A: The value was 2354 ± 108 (n=13) ns nA.

Q: And the “current response to 100 μM acetylcholine” value [5, 12]?
A: Its value is 2368 ± 105 (n=13) ns nA.

Q: And the “current response to 100 μM acetylcholine” value [5, 13]?
A: The value was 2222 ± 62 (n=15) ns nA.

Q: What about the “current response to 100 μM acetylcholine” value [5, 14] of the same molecule?
A: The value was 2183 ± 87 (n=11) ns nA.

Q: And the “current response to 100 μM acetylcholine” value [5, 15]?
A: Its value is 2425 ± 133 (n=12) ns nA.

Q: And the “current response to 100 μM acetylcholine” value ([5]; co-injected: Hco-ric-3)?
A: Its value is 2000–2200 nA.

Q: What about the “current response to 100 μM acetylcholine” value [5, 17] of the same molecule?
A: Its value is 2150 ± 59 nA and 2150 ± 59 (n=15) ns nA.

Q: And the EC50 [6]?
A: The EC50 was 31.1 ± 0.3 µM.
